Literature values in patent publication US12233147B2, “Method for treating keratin material” (Henkel AG & Co. KGaA, priority 2019, dated 2025).

Details: 25° C.

Compound	solubility in water
O=C([O-])C1=NN(c2ccc(S(=O)(=O)[O-])cc2)C(=O)C1N=Nc1ccc(S(=O)(=O)[O-])cc1.[Na+].[Na+].[Na+] (stereo not shown) [Acid Yellow 23, trisodium salt of 4,5-dihydro-5-oxo-1-(4-sulfophenyl)-4-((4-sulfophenyl)azo)-1H-pyrazole-3-carboxylic acid]	highly soluble in water
O=S(=O)([O-])c1ccc(N=Nc2c(O)ccc3ccccc23)cc1.[Na+] [Acid Orange 7, sodium salt of 4-[(2-hydroxy-1-naphthyl)azo]benzene sulphonate]	more than 7 g/L
O=C([O-])c1c(Cl)c(Cl)c(Cl)c(Cl)c1-c1c2c(Br)cc(=O)c(Br)c-2oc2c(Br)c(O)cc(Br)c12.O=C([O-])c1c(Cl)c(Cl)c(Cl)c(Cl)c1-c1c2c(Br)cc(=O)c(Br)c-2oc2c(Br)c(O)cc(Br)c12.[Na+].[Na+] [Acid Red 92, disodium salt of 3,4,5,6-tetrachloro-2-(1,4,5,8-tetrabromo-6-hydroxy-3-oxoxanthen-9-yl)benzoic acid]	greater than 10 g/L
Nc1cc(S(=O)(=O)[O-])cc2cc(S(=O)(=O)[O-])c(N=Nc3ccccc3)c(O)c12.[Na+].[Na+] [Acid Red 33, diantrium salt of 5-amino-4-hydroxy-3-(phenylazo)-naphthalene-2,7-disulphonate]	2500 µg/mL
